{
  "source": "paper PMC6952396",
  "about": "“Structural basis for itraconazole-mediated NPC1 inhibition” (Nature Communications, 2020)",
  "molecular_target": "T1, NPC1 (Cricetulus griseus, UniProt Q9JLG3)",
  "T1 construct": "CHO-7 cells in the medium are deprived of cholesterol to induce the LDL receptors biosynthesis; endogenous in cells; host or cells: CHO-7 cells",
  "T1 sequence (Q9JLG3 23-1277)": "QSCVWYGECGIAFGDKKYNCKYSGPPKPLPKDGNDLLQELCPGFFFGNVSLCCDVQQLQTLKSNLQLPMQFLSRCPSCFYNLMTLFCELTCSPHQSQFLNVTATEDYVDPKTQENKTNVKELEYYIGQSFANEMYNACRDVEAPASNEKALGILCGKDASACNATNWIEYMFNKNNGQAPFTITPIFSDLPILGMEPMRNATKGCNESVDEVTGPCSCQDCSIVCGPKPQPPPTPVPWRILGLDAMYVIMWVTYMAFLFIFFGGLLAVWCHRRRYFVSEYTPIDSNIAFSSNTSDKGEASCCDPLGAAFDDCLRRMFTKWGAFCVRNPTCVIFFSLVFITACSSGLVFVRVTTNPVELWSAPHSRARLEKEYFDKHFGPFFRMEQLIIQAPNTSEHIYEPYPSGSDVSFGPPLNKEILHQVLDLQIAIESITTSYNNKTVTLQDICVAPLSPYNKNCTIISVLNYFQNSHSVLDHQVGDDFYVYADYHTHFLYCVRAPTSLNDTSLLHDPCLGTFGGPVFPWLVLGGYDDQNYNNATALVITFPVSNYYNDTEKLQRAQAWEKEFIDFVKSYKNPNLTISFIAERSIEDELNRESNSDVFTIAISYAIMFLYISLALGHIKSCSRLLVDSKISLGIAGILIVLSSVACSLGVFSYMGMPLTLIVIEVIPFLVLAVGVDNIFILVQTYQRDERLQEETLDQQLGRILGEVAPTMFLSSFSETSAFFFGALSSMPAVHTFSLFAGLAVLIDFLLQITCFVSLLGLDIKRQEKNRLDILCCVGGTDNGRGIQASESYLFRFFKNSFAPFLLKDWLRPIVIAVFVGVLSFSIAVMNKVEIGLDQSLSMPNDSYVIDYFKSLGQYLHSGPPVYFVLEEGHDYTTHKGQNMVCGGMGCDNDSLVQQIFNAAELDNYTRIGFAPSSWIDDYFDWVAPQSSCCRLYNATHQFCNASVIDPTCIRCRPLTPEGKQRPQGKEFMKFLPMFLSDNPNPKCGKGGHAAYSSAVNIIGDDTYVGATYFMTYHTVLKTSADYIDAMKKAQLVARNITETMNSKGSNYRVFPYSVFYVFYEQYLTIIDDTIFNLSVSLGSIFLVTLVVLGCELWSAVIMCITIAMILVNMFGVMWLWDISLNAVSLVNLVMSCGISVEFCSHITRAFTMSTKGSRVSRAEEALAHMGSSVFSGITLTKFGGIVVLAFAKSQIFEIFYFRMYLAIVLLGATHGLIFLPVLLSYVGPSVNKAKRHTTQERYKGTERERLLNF",
  "test": "Cholesterol re-esterification (ACAT) assay measuring NPC1-mediated export of cholesterol from lysosomes in CHO-7 cells",
  "type": "cell-based",
  "details": "for cholesteryl [14C] oleate formed, Repeat 1 / cholesteryl [14C] oleate formed, Repeat 2: Fig. 2 source data; for cholesteryl [14C] oleate formed, Repeat 3 / cholesteryl [14C] oleate formed, Repeat 4: Supplementary Fig. 3 source data",
  "how_it_was_run": "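CHO-7 cells were sterol-deprived (5% LPDS, 50 µM compactin, 50 µM mevalonate), then given compounds with 10% FCS lipoproteins for 4 h at 37 °C and pulse-labeled 2 h with 0.1 mM [14C]oleate. Lipids were extracted, separated by TLC and cholesteryl [14C]oleate quantified by scintillation counting.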",
  "data": [
    {"smiles": "CC(=O)N1CCN(c2ccc(OCC3COC(Cn4ccnc4)(c4ccc(Cl)cc4Cl)O3)cc2)CC1", "note": "(stereo not shown) [Ketoconazole, ketoconazole]", "values": [
      {"measurement": "cholesteryl [14C] oleate formed, Repeat 1", "setting": "0.06 uM compound", "result": "5.105 nanomoles formed per hour per milligram cell protein"},
      {"measurement": "cholesteryl [14C] oleate formed, Repeat 2", "setting": "0.06 uM compound", "result": "4.499 nanomoles formed per hour per milligram cell protein"},
      {"measurement": "cholesteryl [14C] oleate formed, Repeat 1", "setting": "0.1 uM compound", "result": "5.133 nanomoles formed per hour per milligram cell protein"},
      {"measurement": "cholesteryl [14C] oleate formed, Repeat 2", "setting": "0.1 uM compound", "result": "5.266 nanomoles formed per hour per milligram cell protein"},
      {"measurement": "cholesteryl [14C] oleate formed, Repeat 3", "setting": "0.1 uM compound", "result": "5.665 nanomoles formed per hour per milligram cell protein"},
      {"measurement": "cholesteryl [14C] oleate formed, Repeat 4", "setting": "0.1 uM compound", "result": "5.29 nanomoles formed per hour per milligram cell protein"},
      {"measurement": "cholesteryl [14C] oleate formed, Repeat 1", "setting": "0.3 uM compound", "result": "4.872 nanomoles formed per hour per milligram cell protein"},
      {"measurement": "cholesteryl [14C] oleate formed, Repeat 2", "setting": "0.3 uM compound", "result": "4.637 nanomoles formed per hour per milligram cell protein"},
      {"measurement": "cholesteryl [14C] oleate formed, Repeat 3", "setting": "0.3 uM compound", "result": "4.5308 nanomoles formed per hour per milligram cell protein"},
      {"measurement": "cholesteryl [14C] oleate formed, Repeat 4", "setting": "0.3 uM compound", "result": "5.341 nanomoles formed per hour per milligram cell protein"},
      {"measurement": "cholesteryl [14C] oleate formed, Repeat 1", "setting": "1 uM compound", "result": "4.011 nanomoles formed per hour per milligram cell protein"},
      {"measurement": "cholesteryl [14C] oleate formed, Repeat 2", "setting": "1 uM compound", "result": "4.3222 nanomoles formed per hour per milligram cell protein"},
      {"measurement": "cholesteryl [14C] oleate formed, Repeat 3", "setting": "1 uM compound", "result": "3.625 nanomoles formed per hour per milligram cell protein"},
      {"measurement": "cholesteryl [14C] oleate formed, Repeat 4", "setting": "1 uM compound", "result": "4.546 nanomoles formed per hour per milligram cell protein"},
      {"measurement": "IC50", "setting": "IC50 (concentration at which each compound inhibited cholesterol esterification by 50%), 10% FCS, 4 h then 2 h [14C] oleate pulse", "result": "> 1", "unit": "µM"},
      {"measurement": "inhibition of NPC1-mediated cholesterol transport", "setting": "result in words", "result": "did not inhibit"}
    ]}
  ]
}
